Laboratory results reported in the OligoGym collection.
After the bases stand the sugars from the 5' end (letter, count) and the backbone: PS all phosphorothioate, else s phosphorothioate and o phosphodiester by linkage. Methylation of C is not given here. e = 2'-O-(2-methoxyethyl) (MOE); k = constrained ethyl (cEt); d = 2'-deoxy (DNA); m = 2'-O-methyl

Molecular target: HSD17B13
Details: ASO, HepaRG

## CTAAACATCTCTGGGA (sugars k3 d10 k3, PS)
1 µM
  target mRNA inhibition: 62%

## CTAAACCCTGGAGCAG (sugars k3 d10 k3, PS)
1 µM
  target mRNA inhibition: 42%

## CTAAAGGAGATCTGAG (sugars k3 d10 k3, PS)
1 µM
  target mRNA inhibition: 47%

## CTAAATTACTCCGTTC (sugars k3 d10 k3, PS)
1 µM
  target mRNA inhibition: 20%

## CTAAATTATTGCCTGA (sugars k3 d10 k3, PS)
1 µM
  target mRNA inhibition: 39%

## CTAACCTGACACATAT (sugars k3 d10 k3, PS)
1 µM
  target mRNA inhibition: 18%

## CTAAGTTATTATCCCC (sugars k3 d10 k3, PS)
0.02 µM
  target mRNA inhibition: 16%
0.078 µM
  target mRNA inhibition: 22%
0.313 µM
  target mRNA inhibition: 48%
1 µM
  target mRNA inhibition: 70%
1.25 µM
  target mRNA inhibition: 72%
5 µM
  target mRNA inhibition: 95%

## CTAATATTGAGGCACT (sugars k3 d10 k3, PS)
1 µM
  target mRNA inhibition: 51%

## CTAATCTCAGTACTCC (sugars k3 d10 k3, PS)
1 µM
  target mRNA inhibition: 53%

## CTACAAAACTGGTATC (sugars k3 d10 k3, PS)
1 µM
  target mRNA inhibition: 0%

## CTACACTAATATTGAG (sugars kkdddddddddkekek, PS)
1 µM
  target mRNA inhibition: 5%

## CTACAGATTGGAATGC (sugars k3 d10 k3, PS)
1 µM
  target mRNA inhibition: 52%

## CTACATGACCTGGGTC (sugars k3 d10 k3, PS)
1 µM
  target mRNA inhibition: 59%

## CTACATGGATCCAACA (sugars k3 d10 k3, PS)
1 µM
  target mRNA inhibition: 5%

## CTACTTCACTATATTG (sugars k3 d10 k3, PS)
1 µM
  target mRNA inhibition: 33%

## CTACUTGAACAGTCTT (sugars k3 d1 m1 d8 k3, PS)
0.02 µM
  target mRNA inhibition: 9%
0.078 µM
  target mRNA inhibition: 22%
0.313 µM
  target mRNA inhibition: 46%
1 µM
  target mRNA inhibition: 79%
1.25 µM
  target mRNA inhibition: 77%
5 µM
  target mRNA inhibition: 76%

## CTAGGATTAATCATGG (sugars k3 d10 k3, PS)
1 µM
  target mRNA inhibition: 65%

## CTAGGGAAATCTTTCA (sugars k3 d10 k3, PS)
1 µM
  target mRNA inhibition: 48%

## CTAGTGGTAATGGTAA (sugars k3 d10 k3, PS)
1 µM
  target mRNA inhibition: 62%

## CTATAGTAATCACAAG (sugars k3 d1 m1 d8 k3, PS)
1 µM
  target mRNA inhibition: 37%

## CTCAAAGTCAGTATCC (sugars k3 d10 k3, PS)
1 µM
  target mRNA inhibition: 70%

## CTCAACAGAGAATTGT (sugars k3 d10 k3, PS)
1 µM
  target mRNA inhibition: 29%

## CTCAGGCTGTAAGAGT (sugars kkdddddddddkekek, PS)
1 µM
  target mRNA inhibition: 10%

## CTCATTTAGCAGCTTG (sugars k3 d10 k3, PS)
0.02 µM
  target mRNA inhibition: 1%
0.078 µM
  target mRNA inhibition: 10%
0.313 µM
  target mRNA inhibition: 46%
1 µM
  target mRNA inhibition: 70%
1.25 µM
  target mRNA inhibition: 65%
5 µM
  target mRNA inhibition: 90%

## CTCCTGAGTCTTTCTA (sugars k3 d10 k3, PS)
1 µM
  target mRNA inhibition: 23%

## CTCTAAGTGTAAGAGA (sugars k3 d10 k3, PS)
1 µM
  target mRNA inhibition: 28%

## CTCTATTGATTGGCTT (sugars k3 d10 k3, PS)
1 µM
  target mRNA inhibition: 65%

## CTCTCCATCATCGATG (sugars k3 d10 k3, PS)
1 µM
  target mRNA inhibition: 0%

## CTCTGTGAAAGCCAAC (sugars k3 d10 k3, PS)
1 µM
  target mRNA inhibition: 50%

## CTCTTAGCTGTGCACT (sugars k3 d9 k3 e1, PS)
0.02 µM
  target mRNA inhibition: 0%
0.078 µM
  target mRNA inhibition: 20%
0.313 µM
  target mRNA inhibition: 0%
1 µM
  target mRNA inhibition: 66%
1.25 µM
  target mRNA inhibition: 39%
5 µM
  target mRNA inhibition: 79%

## CTCTTGACAATGGTTG (sugars k3 d10 k3, PS)
1 µM
  target mRNA inhibition: 50%

## CTCTUAGCTGTGCACT (sugars k3 d1 m1 d8 k3, PS)
0.02 µM
  target mRNA inhibition: 16%
0.078 µM
  target mRNA inhibition: 14%
0.313 µM
  target mRNA inhibition: 33%
1 µM
  target mRNA inhibition: 67%
1.25 µM
  target mRNA inhibition: 52%
5 µM
  target mRNA inhibition: 58%

## CTGAAAAGCCCTATTC (sugars k3 d10 k3, PS)
1 µM
  target mRNA inhibition: 11%

## CTGAAATTGATACACC (sugars k3 d1 m1 d8 k3, PS)
1 µM
  target mRNA inhibition: 71%

## CTGATATGAGTAAAGA (sugars k3 d10 k3, PS)
1 µM
  target mRNA inhibition: 21%

## CTGCATTAATGCCACC (sugars k3 d9 k3 e1, PS)
1 µM
  target mRNA inhibition: 40%

## CTGCATTAATGCCACC (sugars kkdddddddddkekek, PS)
1 µM
  target mRNA inhibition: 6%

## CTGCTGCTAGTGCCAA (sugars k3 d9 k3 e1, PS)
1 µM
  target mRNA inhibition: 66%

## CTGCTGCTAGTGCCAA (sugars kkdddddddddkekek, PS)
1 µM
  target mRNA inhibition: 44%

## CTGGAACAATATGGGA (sugars k3 d1 m1 d9 k2, PS)
1 µM
  target mRNA inhibition: 45%

## CTGGAACAATATGGGA (sugars k3 d9 k3 e1, PS)
1 µM
  target mRNA inhibition: 36%

## CTGGAACAATATGGGA (sugars kkdddddddddkekek, PS)
1 µM
  target mRNA inhibition: 33%

## CTGGAAGATTAATCAT (sugars k3 d10 k3, PS)
1 µM
  target mRNA inhibition: 31%

## CTGGAGAAGAGTTTAC (sugars k3 d10 k3, PS)
1 µM
  target mRNA inhibition: 38%

## CTGTAAGAGTCAGTAT (sugars k3 d10 k3, PS)
1 µM
  target mRNA inhibition: 42%

## CTGTATTAAGACAGTT (sugars k3 d10 k3, PS)
1 µM
  target mRNA inhibition: 41%

## CTGTCATAAAGGTGGG (sugars k3 d10 k3, PS)
1 µM
  target mRNA inhibition: 59%

## CTGTGACGATGTGGCC (sugars k3 d10 k3, PS)
1 µM
  target mRNA inhibition: 28%

## CTGTGGCATGGCTACA (sugars kkdddddddddkekek, PS)
1 µM
  target mRNA inhibition: 33%

## CTGTGTAAATAAGTTC (sugars k3 d10 k3, PS)
1 µM
  target mRNA inhibition: 38%

## CTGTGTTAGCTTTAAT (sugars kkdddddddddkekek, PS)
1 µM
  target mRNA inhibition: 47%

## CTTAAACCTTCCCTGT (sugars k3 d1 m1 d8 k3, PS)
1 µM
  target mRNA inhibition: 24%

## CTTAAACCTTCCCTGT (sugars k3 d9 k3 e1, PS)
1 µM
  target mRNA inhibition: 34%

## CTTAAGAGAAGGTGCA (sugars k3 d10 k3, PS)
1 µM
  target mRNA inhibition: 43%

## CTTAAGATACCCAGGT (sugars k3 d9 k3 e1, PS)
1 µM
  target mRNA inhibition: 45%

## CTTACATATTGCATAC (sugars k3 d10 k3, PS)
1 µM
  target mRNA inhibition: 35%

## CTTAGTGTAGAATTGT (sugars k3 d10 k3, PS)
1 µM
  target mRNA inhibition: 56%

## CTTATTGGTAAGTATT (sugars k3 d9 k3 e1, PS)
1 µM
  target mRNA inhibition: 24%

## CTTATTGGTAAGTATT (sugars k3 d10 k3, PS)
1 µM
  target mRNA inhibition: 22%

## CTTCACCAACGACTCC (sugars k3 d10 k3, PS)
1 µM
  target mRNA inhibition: 8%

## CTTCAGAGTTATACAG (sugars k3 d10 k3, PS)
1 µM
  target mRNA inhibition: 35%

## CTTCATAGTGGACTTC (sugars k3 d1 m1 d8 k3, PS)
1 µM
  target mRNA inhibition: 35%

## CTTCTATTGTATGAGG (sugars k3 d10 k3, PS)
1 µM
  target mRNA inhibition: 40%

## CTTCTGTAGGTTTTGC (sugars k3 d10 k3, PS)
1 µM
  target mRNA inhibition: 60%

## CTTGAACAGTCTTAAA (sugars kkdddddddddkekek, PS)
1 µM
  target mRNA inhibition: 38%

## CTTGAATAGCAAGCCA (sugars k3 d10 k3, PS)
1 µM
  target mRNA inhibition: 25%

## CTTGATCTCTTAGCTG (sugars k3 d9 k3 e1, PS)
1 µM
  target mRNA inhibition: 36%

## CTTGATGTAGTGGGAG (sugars k3 d10 k3, PS)
0.02 µM
  target mRNA inhibition: 0%
0.078 µM
  target mRNA inhibition: 4%
0.313 µM
  target mRNA inhibition: 21%
1 µM
  target mRNA inhibition: 83%
1.25 µM
  target mRNA inhibition: 62%
5 µM
  target mRNA inhibition: 80%

## CTTGATGTAGTGGGAG (sugars kkdddddddddkekek, PS)
1 µM
  target mRNA inhibition: 20%
